Data set [1] has as its target T1, MtbAdoK (Mycobacterium tuberculosis, UniProt P9WID5). Particulars: read-out: Km for adenosine, previously reported values; cited from earlier work.
The subject of a further data set is Mtb H37Rv WT. Briefly: microbe, parasite or virus in culture. Conditions: Mycobacterium tuberculosis. Format: cell-based.
For data set [2], the target named is T1, MtbAdoK. Briefly: MtbAdoK enzymatic assay (pyruvate kinase–lactate dehydrogenase coupled), IC50 and Ki determination. In kind it is biochemical. Conditions: Cheng–Prusoff for competitive inhibition; 15.0 μM adenosine; ± SD of 2 experiments.
In the next data set the target is T2, hAdoK (Homo sapiens, UniProt P55263).
T2 construct: His-tag with Tobacco Etch Virus (TEV) cleavage site (N); made in house; host or cells: Escherichia coli BL21 (DE3)
T2 sequence (P55263 1-345 isoform P55263-2): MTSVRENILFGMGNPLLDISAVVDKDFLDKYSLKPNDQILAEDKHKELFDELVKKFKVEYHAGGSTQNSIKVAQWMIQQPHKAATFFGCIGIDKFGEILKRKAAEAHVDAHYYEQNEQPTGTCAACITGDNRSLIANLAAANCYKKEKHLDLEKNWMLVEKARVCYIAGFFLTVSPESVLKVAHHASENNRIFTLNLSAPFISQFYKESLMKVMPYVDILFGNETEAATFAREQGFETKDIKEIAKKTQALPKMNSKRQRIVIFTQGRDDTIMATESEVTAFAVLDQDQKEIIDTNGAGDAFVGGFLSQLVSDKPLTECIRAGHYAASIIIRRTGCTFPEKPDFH
Briefly: hAdoK enzymatic assay (pyruvate kinase–lactate dehydrogenase coupled), Ki determination. In kind it is biochemical.

The test system of another data set is Mtb mc^2 7000. Kind of data set: Antimycobacterial assay (MABA). Format: cell-based. Conditions: Mycobacterium tuberculosis, Mtb mc^2 7000, MABA, 6 days + 2 days resazurin.
Data set [3] deals with human dermal fibroblasts (HDF). Kind of data set: in vitro. In kind it is cell-based. Particulars: HDF cells. How it is done: HDFs were purchased from ATCC (Manassas, VA). HDF cells were cultured in DMEM (Lonza) media supplemented with 10.0% fetal bovine serum (Lonza) and penicillin/streptomycin (Lonza). For the cytotoxicity assay, compound stocks were serially diluted in phosphate-buffered saline plus 10.0% DMSO. On the day of assay, HDF cells were trypsinized, counted, and resuspended at a concentration of 64 000 cells/mL in media. Cells were plated, overlaid with the compound serial dilutions, and incubated at 37.0 °C. After 48.0 h, resazurin dye was added, and the assay plates cultured for another 24.0 h. On the next day, the absorbance of the resazurin was measured on a microplate reader to assess cell death. Cytotoxicity was determined as a percent control, and CC50 values for each compound were determined by utilizing eq 1.

A further data set in a line: in vivo. Also on record: species or system Swiss Webster mice. Particulars: female, ND4 Swiss Webster, mouse, po. How it is done: (§1) Eight-week old female ND4 Swiss Webster mice (∼28 g each) (Envigo, Indianapolis, IN) were used for PK and combination tolerability-snapshot PK studies. Compound 18 was formulated in 5% DMSO, 95% canola oil and administered as a single 100 μL oral gavage at 10 mg·kg^–1 for PK and as a 200 μL oral gavage at 50, 100, or 200 mg·kg^–1 QD × 3 days for tolerability-snapshot PK. Mice were anesthetized using isoflurane and 50 μL collected at 0, 0.25, 0.5, 1, 2, and 4 h survival bleed times for traditional PK or 0, 1, 4, and 24 h for tolerability-snapshot PK studies after the first administered dose. Around 200 μL was collected at 6, 8, and 24 h terminal bleed times for the traditional PK. Survival bleeds were drawn from the facial vein and terminal bleeds via cardiac puncture following CO2 asphyxiation.[35] Three mice were used per time point.
Blood samples were centrifuged (3000g, 15 min) for plasma separation. Aliquots of plasma (10 μL) were extracted with two 500 μL equivalents of methanol containing 0.1% formic acid to ensure maximum recovery of compound 18 from plasma. The supernatant was collected from precipitated protein pellet following centrifugation (3000g, 5 min) and evaporated to dryness using a temperature-controlled Eppendorf Vacufuge at 30 °C for 4 h. The dry samples were reconstituted with 100 μL of methanol (1:10 original analyte dilution factor) spiked with 250 ng·mL^–1 verapamil (Sigma-Aldrich) as an internal standard and subjected to LC/MS analysis on a Bruker Daltronics micrOTOF-Q II mass spectrometer coupled with an Agilent 1200 Infinity series HPLC with temperature controlled autosampler (24 °C) and photodiode array detector. Standard solutions of compound 18 ranging from 1000 to 7.8125 ng·mL^–1 spiked into mouse control plasma was also analyzed to generate a calibration curve corrected for matrix effects. A linear regression generated from calibration samples was used to quantify samples.[34] The LOD of the LC/MS method was approximately 2 ng·mL^–1. A 4.6 × 100 mm Kinetex 2.6 μm EVO C18 100 Å column at a flow rate of 0.5 mL·min^–1 was used in the analysis. The mobile phase consisted of water containing 0.1% formic acid as solvent A and acetonitrile with 0.1% formic acid as solvent B. The gradient conditions were maintained as follows: 90% A, 10% B to 100% B in 8 min; 100% held for 4 min as a washing step; 100% B back to 90% A in 2 min; 90% A, 10% B held for 3 min to reset and equilibrate the column. Each analytical run was automatically calibrated using a secondary line injection of 10 μL of sodium acetate external standard at 13 min. The injection volume of the analyte was 10 μL, and MS was operated in positive mode with electrospray ionization at source. Mass spectra were monitored in a range of 50–1000m/z. Data were processed using DataAnalysis 4.1 and QuantAnalysis (Bruker Daltronics).

The format of data set [4] is in vivo. Particulars: female Swiss Webster mice, single oral dose 10 mg·kg^–1. How it is done:
as §1

Data set [5] addresses T1, MtbAdoK. Briefly: Steady-state kinetics of MtbAdoK. Particulars: versus adenosine.

In brackets after ≈: the same amount, converted by molar mass.

T1 sequence (P9WID5 whole entry, looked up): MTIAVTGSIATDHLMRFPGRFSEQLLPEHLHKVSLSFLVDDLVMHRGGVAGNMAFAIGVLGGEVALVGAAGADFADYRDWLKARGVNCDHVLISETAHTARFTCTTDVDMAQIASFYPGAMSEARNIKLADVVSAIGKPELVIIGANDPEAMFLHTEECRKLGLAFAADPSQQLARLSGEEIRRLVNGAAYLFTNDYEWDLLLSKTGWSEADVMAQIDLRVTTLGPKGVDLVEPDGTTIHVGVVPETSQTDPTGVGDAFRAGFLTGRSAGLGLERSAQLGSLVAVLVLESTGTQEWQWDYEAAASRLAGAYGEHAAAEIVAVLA

`Nc1ncnc2c1ncn2[C@@H]1O[C@H](CO)[C@@H](O)[C@H]1O` [Compound 1, adenosine]: the Km on MtbAdoK [1] is 0.8 to 3.4 µM.
The molecule `Nc1ncnc2c1c(I)cn2[C@@H]1O[C@H](CO)[C@@H](O)[C@H]1O` [Compound 2, Iodotubercidin] had an MIC against Mtb H37Rv WT of 18 ± 10 µM (≈ 7.06 µg/mL).
As to `OC[C@H]1O[C@@H](n2cnc3c(N4CCN(c5ccc(-c6ccccc6)cc5)CC4)ncnc32)[C@H](O)[C@@H]1O` [Compound 18, (2R,3R,4S,5R)-2-(6-(4-([1,1′-Biphenyl]-4-yl)piperazin-1-yl)-9H-purin-9-yl)-5-(hydroxymethyl)tetrahydrofuran-3,4-diol], the Ki is 0.0053 ± 7e-05 µM on MtbAdoK [2] and over 50 µM on hAdoK (Cheng–Prusoff, ± SD of 2 experiments). Further, the “activity against hAdoK (in words)” value on hAdoK is given as “no activity against hAdoK”. For the same molecule, the EC50 was about 4 µM in the data set with Mtb mc^2 7000 (192 h) and 4 ± 0.2 µM with Mtb mc^2 7000. For the same molecule, in data set [3], the “cytotoxicity (in words)” value is “no cytotoxicity”. Further, the AUC(0-t) in the data set “in vivo” (10 mg/kg) amounted to 1800 ng·h/mL. Moreover, the Cmax in the data set “in vivo” (10 mg/kg) came out at 130 ± 20 ng/mL. Moreover, the Tmax in the data set “in vivo” (10 mg/kg), in “in vivo” (50 mg/kg), in the data set “in vivo” (100 mg/kg) and in the data set “in vivo” (200 mg/kg) was about 4 h throughout. Further, the AUC was found to be 9800 ng·h/mL in “in vivo” (50 mg/kg), 15300 ng·h/mL in “in vivo” (100 mg/kg) and 23200 ng·h/mL in the data set “in vivo” (200 mg/kg). In addition, the tolerability result in [4] is given as “well tolerated”. In addition, the mode of inhibition entry on MtbAdoK [5] is reported as “competitive”.
